# Assays:
# Assay type in all cases: cell-based, mouse
# MEFs = assay: CiPSC induction by small-molecule combinations, primary CiPSC colonies counted; details: for replacement of DZNep in CiPSC generation: in combination with VC6TF
# Method: The initial cells (MEFs, MNFs, MAFs or ADSCs) were seeded at a density of 50,000 cells per well of a 6-well plate or 300,000 cells per 100 mm dish. On the next day (day 0), the original medium was replaced with chemical reprogramming medium containing the small-molecule combinations. The small-molecule combinations-containing medium was changed every 4 days. On day 12, these cells were washed in PBS and digested with 0.25% Trypsin-EDTA (Invitrogen) at 37° C. for 3-5 min. After neutralization, the cell clumps were dissociated into single cells by thorough pipetting. The cells were harvested (300,000-1,000,000 cells per well of a 6-well plate) and replated at a density of 300,000-500,000 cells per well of a 6-well plate in the chemical reprogramming medium containing the small-molecule combinations. DZNep was added to the cell cultures on day 16 or day 20. On day 28-36, the small-molecule combinations including DZNep were removed. Meanwhile, the chemical reprogramming medium was replaced with 2i-medium. After another 8-12 days, 2i-competent, ESC-like and GFP-positive colonies were counted as primary CiPSC colonies. For CiPSC induction from wild-type cells without OG reporter, 2i-competent and ESC-like colonies were counted as primary CiPSC colonies. These CiPSC colonies were picked up for expansion and characterization. Alternatively, CiPSCs could be induced without replating on day 12.
# MEFs from OG mice [1] = assay: Screen for small molecules that facilitate late reprogramming (DOX-inducible Oct4 plus VC6T)
# Method: To identify small molecules that facilitate late reprogramming, a doxycycline (DOX)-inducible Oct4 expression screening system was used (Li, et al., Cell Res. 21:196-204 (2011)).
# MEFs from OG mice were plated as described above and infected with Fu-tet-hOct4 and FUdeltaGW-rtTA lentiviruses. The induction protocol was carried out as described above.
# After infection, the culture medium was replaced with LIF-free ESC culture medium containing VC6T (VPA, CHIR99021, 616452, Tranylcypromine) plus DOX (1 μg/ml). Alternatively, MEFs harboring DOX-inducible Oct4 from Tet-On POU5F1 mouse strain B6; 129-Gt(ROSA)26Sor^tm1(rTA*M2)Jae COl1a1^tm2(tetO-Pou5f1)Jae/J were used in this screen (Li, et al., Cell Res., 21:196-204 (2011)). These two DOX-inducible systems were only used in this screen, but not in complete chemical reprogramming. Individual chemicals from small-molecule libraries were added to each well. Small molecules were added at different culture time points. 5-aza-C (5-Azacytidine) and DZNep were added from day 8. The medium and chemicals were changed every 4 days; DOX was added only for the first 4-8 days. Chemical treatments were continued for 16-24 days or until GFP-positive colonies appeared. Primary hits were selected for further confirmation and optimization. CiPSC colonies were counted on day 44. […]
# [2] = tested on: pluripotency-related genes; assay: Gene expression during chemical reprogramming (real-time PCR, RNA-seq); details: for activation of endogenous expression of Sall4 and Sox2: withdrawal from VC6TF, after 12 days
# Oct4 promoter [3] = assay: Chromatin immunoprecipitation, H3K9 methylation at the Oct4 promoter
# Method: ChIP was performed using the EZ-Magna ChIP A/G Kit (Millipore) according to the manufacturer's protocol. Anti-H3K27me3 (Abcam, ab6002), anti-H3K9me2 (Millipore, 07-441), anti-H3K4me3 (Abcam, ab8580) and anti-H3K9ac (Abcam, ab4441) antibodies were used. Following immunoprecipitation, DNA was analyzed by real-time PCR.
# (§1) The function of DZNep in inducing CiPSCs could not be replaced by down-regulating Ezh2 expression (FIGS. 14C-E). GFP+/ES-like colonies in the primary culture, unlike other colonies, express high mRNA level of Nanog and low level of Gata6, resembling ESCs and the established CiPSCs (data not shown). As master pluripotency genes, Oct4 and Sox2 may thereby activate other pluripotency-related genes and fulfill the chemical reprogramming process, along with the activation of Nanog and the silencing of Gata6, in the presence of 2i (Silva, et al., PLoS Biol. 6:e253 (2008), Theunissen, et al., Curr. Biol., 21:65-71 (2011). Boyer, et al., Cell, 122:947-956(2005); Chazaud, at al., Dev. Cell, 10:615-624 (2006)).
# Oct4 promoter [4] = assay: DNA methylation at the Oct4 promoter during chemical reprogramming
# From the text: Genomic DNA was modified by bisulfite treatment and purified using the MethylCode™ Bisulfite Conversion Kit (Invitrogen) according to the manufacturer's protocol. The amplified fragments were cloned into the pEASY-blunt Vector (Transgene). Ten randomly picked clones from each sample were sequenced.
# as §1
# [5] = tested on: concentration ratio of SAH to SAM; assay: SAH and SAM quantification by HPLC
# Method: (§2) cAMP was quantified using the Direct cAMP ELISA Kit (Enzo) according to the manufacturer's protocol. For SAM and SAH quantification, cultured cells (1,000,000 cells) were trypsinized and homogenized by ultrasonication in 200 μl PBS. Then 40 μl of 400 mg/ml TCA was added. Cell extracts were incubated on ice for 30 min. After centrifugation at 4° C. (13,000 rpm, 15 min), the supernatants were filtered through a 0.22 μm filter and analyzed by high-performance liquid chromatography (HPLC, Shimadzu) with HILIC columns (Waters).
# Next, the role of DZNep, which was added in the late phase of chemical reprogramming was investigated. […] As an SAH hydrolase inhibitor, DZNep elevates the concentration ratio of SAH to S-adenosylmethionine (SAM) and may thereby repress the SAM-dependent cellular methylation process (FIG. 14A).
# MEFs from OG mice [6] = assay: Screen for chemical substitutes of Oct4 in OG-MEFs infected with Sox2, Klf4 and c-Myc; details: OG-MEFs with viral expression of Sox2, Klf4 and c-Myc
# Method: To identify chemical substitutes of Oct4, MEFs from OG mice were plated at a density of 20,000 cells per well of a 12-well plate and infected with lentiviruses encoding Sox2, Klf4 and c-Myc. After infection, the medium was replaced with LIF-free ESC culture medium. Individual chemicals from small-molecule libraries were added to each well. The medium and chemicals were changed every 4 days. Chemical treatments were continued for 14-20 days or until GFP-positive colonies appeared. Primary hits were selected for further confirmation and optimization.
# Small molecules that enable reprogramming in the absence of Oct4 were searched using Oct4 promoter-driven green fluorescent protein (GFP) expression (OG) mouse embryonic fibroblasts (MEFs), with viral expression of Sox2, Klf4, and c-Myc.
# cAMP level in MEF = assay: Intracellular cAMP quantification (Direct cAMP ELISA); details: FSK 10 μM, versus DMSO control
# Method: as §2
# The effect of inhibiting adenylate cyclase on the number of colonies generated by VC6TFZ was tested. […] The effect of replacing FSK with the cAMP analog (DBcAMP), alone or in combination with phosphodiesterase inhibitors, IBMX, or the phosphodiesterase inhibitor, rolipram and IBMX, on cell reprogramming was also tested. Both DBcAMP and IBMX were used at 50 μM in the combination treatment.
compound,measurement,setting,value
"C/C(=C\c1ccc(C(=O)O)cc1)c1ccc2c(c1)C(C)(C)CCC2(C)C [TTNPB, 4-[(E)-2-(5,6,7,8-Tetrahydro-5,5,8,8-tetramethyl-2-naphthalenyl)-1-propenyl]benzoic acid]","enhancement of chemical reprogramming efficiency, factor",MEFs; booster added to chemical reprogramming in MEFs,≤ 40
same,chemical reprogramming frequency,MEFs; with booster TTNPB,up to 0.2%
Nc1ncn([C@@H]2O[C@H](CO)[C@@H](O)[C@H]2O)c(=O)n1 [5-Azacytidine],hit facilitating late reprogramming,MEFs from OG mice [1],identified in this screen
"Cc1cnc(-c2cnc(NCCNc3ccc(C#N)cn3)nc2-c2ccc(Cl)cc2Cl)[nH]1 [CHIR99021, 6-[[2-[[4-(2,4-Dichlorophenyl)-5-(5-methyl-1H-imidazol-2-yl)-2-pyrimidinyl]amino]ethyl]amino]-3-pyridinecarbonitrile]",activation of endogenous expression of Sall4 and Sox2,[2],essential in activating
CCCCC[C@H](O)/C=C/[C@H]1[C@H](O)CC(=O)[C@@H]1C/C=C\CCCC(=O)O [Prostaglandin E2],hit facilitating late reprogramming,MEFs from OG mice [1],identified in this screen
"Nc1nccc2c1ncn2[C@@H]1C=C(CO)[C@@H](O)[C@H]1O [DZNep, 3-deazaneplanocin A]",H3K9 methylation at the Oct4 promoter,Oct4 promoter [3],significantly decreased
same,DNA methylation at the Oct4 promoter,Oct4 promoter [4],significantly decreased
same,hit facilitating late reprogramming,MEFs from OG mice [1],identified in this screen
same,Oct4 expression,[2]; after addition of DZNep in chemical reprogramming,enhanced significantly
same,concentration ratio of SAH to S-adenosylmethionine (SAM),[5],elevates
C=C[C@@]1(C)CC(=O)[C@]2(O)[C@@]3(C)[C@@H](O)CCC(C)(C)[C@@H]3[C@H](O)[C@H](OC(C)=O)[C@@]2(C)O1 [Forskolin],reprogramming in the absence of Oct4 (chemical substitute for Oct4),MEFs from OG mice [6],identified as chemical “substitutes” for Oct4
same,cAMP level,cAMP level in MEF,significantly elevates
same,hit facilitating late reprogramming,MEFs from OG mice [1],identified in this screen
same,activation of endogenous expression of Sall4 and Sox2,[2],essential in activating
"Cc1[nH]c2ccc(O)cc2c1CCN [2-Me-5HT, 2-Methyl-5-hydroxytryptamine hydrocholoride]",reprogramming in the absence of Oct4 (chemical substitute for Oct4),MEFs from OG mice [6],identified as chemical “substitutes” for Oct4
"CCCC(=O)[O-].[Na+] [sodium butyrate, Sodiumbutyane]",hit facilitating late reprogramming,MEFs from OG mice [1],identified in this screen
"Nc1ncnc2c1ncn2[C@@H]1C=C(CO)[C@@H](O)[C@H]1O [NEPA, (−)Neplanocin A]",replacement of DZNep in CiPSC generation,MEFs,useful in replacing DZNep in reprogramming
COc1ccc(C2CNC(=O)C2)cc1OC1CCCC1 (centres unmarked) [Rolipram],hit facilitating late reprogramming,MEFs from OG mice [1],identified in this screen
"Nc1ncnc2c1ncn2C(C=O)OC(C=O)CO (centres unmarked) [ADOX, Adenosine periodate oxidized]",replacement of DZNep in CiPSC generation,MEFs,useful in replacing DZNep in reprogramming
bFGF: recombinant basic fibroblast growth factor,requirement in inducing CiPSCs,MEFs; FIG. 5G,necessary in inducing CiPSCs
"Cc1cccc(-c2n[nH]cc2-c2ccc3ncccc3n2)n1 [compound 616452, 2-(3-(6-Methylpyridin-2-yl)-1H-pyrazol-4-yl)-1,5-naphthyridine]",activation of endogenous expression of Sall4 and Sox2,[2],essential in activating
NC(=O)c1ccc(-c2nc(-c3ccc4c(c3)OCCO4)c(-c3ccccn3)[nH]2)cc1 [D4476],reprogramming in the absence of Oct4 (chemical substitute for Oct4),MEFs from OG mice [6],identified as chemical “substitutes” for Oct4
"Nc1nccc2c1ncn2C1OC(CO)C(O)C1O (centres unmarked) [DZA, 3-Deamadenoxine]",replacement of DZNep in CiPSC generation,MEFs,useful in replacing DZNep in reprogramming

# From patent US9982237B2, “Compositions and methods for reprograming non-pluripotent cells into pluripotent stem cells” (Hong Guan Ltd., priority 2013, dated 2018)
